We go through four molecules from patent US20080214533A1, “Cyclic Iminocarbamates And Their Use” (BAYER HEALTHCARE AG, priority 2004, published 2008).

Structures are written as SMILES.

Usually IC50 stands for the concentration at which inhibition is half-maximal. The low end stands for greater potency in that assay, the high end for weaker potency in that assay.

human factor Xa (FXa), sequence (P00742 235-488 limits assumed): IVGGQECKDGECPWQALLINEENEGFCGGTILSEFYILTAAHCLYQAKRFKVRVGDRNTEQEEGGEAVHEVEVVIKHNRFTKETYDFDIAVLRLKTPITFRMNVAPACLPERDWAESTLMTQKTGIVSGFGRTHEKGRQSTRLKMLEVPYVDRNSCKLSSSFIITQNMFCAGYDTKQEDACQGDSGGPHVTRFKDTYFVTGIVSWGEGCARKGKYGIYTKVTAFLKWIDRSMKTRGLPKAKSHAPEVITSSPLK
human factor Xa (FXa), sequence (P00742 41-179 partner limits assumed): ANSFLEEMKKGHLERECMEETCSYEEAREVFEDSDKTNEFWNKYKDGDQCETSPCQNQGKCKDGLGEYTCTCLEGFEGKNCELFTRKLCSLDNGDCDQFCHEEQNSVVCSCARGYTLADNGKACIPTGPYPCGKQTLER

The assay addresses human factor Xa (FXa) (Homo sapiens, UniProt P00742). Briefly: Determination of the factor Xa inhibition (chromogenic substrate). Conditions: chromogenic substrate Pefachrome FXa, 25° C., extinction at 405 nm. In kind it is biochemical. On the procedure: The enzymatic activity of human factor Xa (FXa) is measured using the conversion of a chromogenic substrate specific for FXa. Factor Xa cleaves p-nitroaniline from the chromogenic substrate. The determinations are carried out in microtitre plates as follows:
The test substances, in various concentrations, are dissolved in DMSO and incubated for 10 minutes at 25° C. with human FXa ([…] dissolved in 50 mmol/l of Tris buffer [C,C,C-tris(hydroxymethyl)aminomethane], 150 mmol/l of NaCl, 0.1% BSA [bovine serum albumin], pH=8.3). Pure DMSO is used as control. The chromogenic substrate (150 μmol/l Pefachrome® FXa from Pentapharm) is then added. After an incubation time of 20 minutes at 25° C., the extinction at 405 nm is determined.
The molecule `Cc1nc(C(=O)Nc2ccc(N3CCOC3=N)cc2)c(C(=O)Nc2ccc(Cl)cn2)s1` [Example 13, N^5-(5-Chloropyridin-2-yl)-N^4-[4-(2-imino-1,3-oxazolidin-3-yl)phenyl]-2-methyl-1,3-thiazole-4,5-dicarboxamide methanesulphonate] showed an IC50 of 4.4 nM.

`Cc1nc(C(=O)Nc2ccc(Cl)cn2)c(C(=O)Nc2ccc(N3CCOC3=N)cc2)s1` [Example 12, N^4-(5-Chloropyridin-2-yl)-N^5-[4-(2-imino-1,3-oxazolidin-3-yl)phenyl]-2-methyl-1,3-thiazole-4,5-dicarboxamide methanesulphonate]: the concentration for half-maximal inhibition (IC50) was 0.3 nM.

On to `N=C1OCCN1c1ccc(NC(=O)c2nccnc2C(=O)Nc2ccc(Cl)cn2)cc1` [Example 1, N-(5-Chloropyridin-2-yl)-N′-[4-(2-imino-1,3-oxazolidin-3-yl)phenyl]pyrazine-2,3-dicarboxamide methanesulphonate], for which inhibition was half-maximal at 0.64 nM (IC50).

`N=C1OCCCN1c1ccc(NC(=O)c2nccnc2C(=O)Nc2ccc(Cl)cn2)cc1` [Example 5, N-(5-Chloropyridin-2-yl)-N′-[4-(2-imino-1,3-oxazinan-3-yl)phenyl]pyrazine-2,3-dicarboxamide methanesulphonate] registered an IC50 of 2.6 nM.
